Source: US11987575B2, “Tricyclic compounds as BCR-ABL inhibitors” (ASCENTAGE PHARMA (SUZHOU) CO., LTD., priority 2019, dated 2024)

Experiments:
BaF3 (T315I mutant) = BaF3 (T315I mutant) (Homo sapiens, UniProt P00519, T315I, cells depend on it); assay: WST (CCK-8) anti-proliferative assay, BaF3 T315I mutant; details: read-out: BaF3 (T315I mutant), 72 h treatment, CCK-8 readout OD 450 nm
BaF3(WT) = BaF3(WT) (Homo sapiens, UniProt P00519); assay: WST (CCK-8) anti-proliferative assay, BaF3 WT; details: read-out: BaF3(WT); BaF3 WT cells, 72 h treatment, CCK-8 readout OD 450 nm

| SMILES | GI50 (BaF3 (T315I mutant)) | GI50 (BaF3(WT)) |
| --- | --- | --- |
| CC(=O)NC1CCC2c3cc(C(=O)Nc4ccc(OC(F)(F)Cl)cc4)cc(-c4cncnc4)c3N(C(C)C)C12 (centres unmarked) [Compound 20] | 44 nM | 9 nM |
| CC(C)NS(=O)(=O)NC1CCC2c3cc(C(=O)Nc4ccc(OC(F)(F)Cl)cc4)cc(-c4ccn[nH]4)c3N(C(C)C)C12 (centres unmarked) [Compound 19] | 97 nM | 6 nM |
| CC(C)N1c2c(-c3ccn[nH]3)cc(C(=O)Nc3ccc(OC(F)(F)Cl)cc3)cc2C2CCC(NC(=O)N3CCN(C)CC3)C21 (centres unmarked) [Compound 14] | 208 nM | 41 nM |
| CC(=O)N[C@H]1CC[C@@H]2c3cc(C(=O)Nc4ccc(OC(F)(F)Cl)cc4)cc(-c4ccn[nH]4)c3N(CC(C)(C)C)[C@H]12 [Compound 22-B, (3S,3aS,8bR)-3-acetamido-N-(4-(chlorodifluoromethoxy)phenyl)-4-neopentyl-5-(1H-pyrazol-5-yl)-1,2,3,3a,4,8b-hexahydrocyclopenta[b]indole-7-carboxamide] | 1010 nM | 482 nM |
| CC(=O)N[C@@H]1CC[C@H]2c3cc(C(=O)Nc4ccc(OC(F)(F)Cl)cc4)cc(-c4cncc(C#N)c4)c3N(C(C)C)[C@@H]12 [Compound 53-A] | 16 nM | 3 nM |
| CCOC(=O)NC1CCC2c3cc(C(=O)Nc4ccc(OC(F)(F)Cl)cc4)cc(-c4ccn[nH]4)c3N(C(C)C)C12 (centres unmarked) [Compound 28] | 168 nM | 19 nM |
| CC(=O)N[C@@H]1CC[C@H]2c3cc(C(=O)Nc4ccc(OC(F)(F)Cl)cc4)cc(-c4ccc(C#N)nc4)c3N(C(C)C)[C@@H]12 [Compound 47-A] | 13 nM | 5 nM |
| CC(=O)N[C@@H]1CC[C@H]2c3cc(C(=O)Nc4ccc(OC(F)(F)Cl)cc4)cc(-c4cnccn4)c3N(CC(C)(C)C)[C@@H]12 [Compound 58-A] | 80 nM | 18 nM |
| CC(C)N1c2c(-c3ccn[nH]3)cc(C(=O)Nc3ccc(OC(F)(F)Cl)cc3)cc2C2CCC(NC(=O)N3CCOCC3)C21 (centres unmarked) [Compound 10] | 29 nM | 31 nM |
| CCC(CC)N1c2c(-c3cncc(F)c3)cc(C(=O)Nc3ccc(OC(F)(F)Cl)cc3)cc2C2CCC(NC(C)=O)C21 (centres unmarked) [Compound 65] | 119 nM | 9 nM |
| COC(C)(C)CN1c2c(-c3ccn[nH]3)cc(C(=O)Nc3ccc(OC(F)(F)Cl)cc3)cc2C2CCC(NC(C)=O)C21 (centres unmarked) [Compound 63] | 52 nM | 41 nM |
| CC(=O)N[C@@H]1CC[C@H]2c3cc(C(=O)Nc4ccc(OC(F)(F)Cl)cc4)cc(-c4ccn[nH]4)c3N(C(C)C)[C@@H]12 [Compound 4-A, (3R,3aR,8bS)-3-acetamido-N-(4-(chlorodifluoromethoxy)phenyl)-4-isopropyl-5-(1H-pyrazol-5-yl)-1,2,3,3a,4,8b-hexahydrocyclopenta[b]indole-7-carboxamide] | 35 nM | 3 nM |
| CC(=O)N[C@@H]1CC[C@H]2c3cc(C(=O)Nc4ccc(OC(F)(F)Cl)cc4)cc(-c4cccc(C#N)c4)c3N(C(C)C)[C@@H]12 [Compound 66-A] | 29 nM | 3 nM |
| CC(C)N1c2c(-c3ccn[nH]3)cc(C(=O)Nc3ccc(OC(F)(F)Cl)cc3)cc2C2CCN(C)CC21 (centres unmarked) [Compound 40, N-(4-(chlorodifluoromethoxy)phenyl)-9-isopropyl-2-methyl-8-(1H-pyrazol-5-yl)-2,3,4,4a,9,9a-hexahydro-1H-pyrido[3,4-b]indole-6-carboxamide] | 1110 nM | 358 nM |
| CC(C)N1c2c(-c3ccn[nH]3)cc(C(=O)Nc3ccc(OC(F)(F)Cl)cc3)cc2C2CCC(NC(=O)C3CCNCC3)C21 (centres unmarked) [Compound 27] | 5060 nM | 1240 nM |
| CC(C)N1c2c(-c3ccn[nH]3)cc(C(=O)Nc3ccc(OC(F)(F)Cl)cc3)cc2C2CCC(NS(=O)(=O)C3CC3)C21 (centres unmarked) [Compound 24] | 114 nM | 17 nM |
| CC(=O)N[C@@H]1CC[C@H]2c3cc(C(=O)Nc4ccc(OC(F)(F)Cl)cc4)cc(-c4cncc(C)c4)c3N(C(C)C)[C@@H]12 [Compound 50-A] | 39 nM | 4 nM |
| CC(C)N1c2c(-c3ccn[nH]3)cc(C(=O)Nc3ccc(OC(F)(F)Cl)cc3)cc2[C@@H]2CCS(=O)(=O)C[C@@H]21 [Compound 54-A, (4aS,9aR)-N-(4-(chlorodifluoromethoxy)phenyl)-9-isopropyl-8-(1H-pyrazol-5-yl)-1,3,4,4a,9,9a-hexahydrothiopyrano[3,4-b]indole-6-carboxamide 2,2-dioxide] | 45 nM | 8 nM |
| CC(=O)N[C@@H]1CC[C@H]2c3cc(C(=O)Nc4ccc(OC(F)(F)Cl)cc4)cc(-c4cnc(C)nc4)c3N(CC(C)(C)C)[C@@H]12 [Compound 61-A] | 56 nM | 11 nM |
| CC(C)N1c2c(-c3ccn[nH]3)cc(C(=O)Nc3ccc(OC(F)(F)Cl)cc3)cc2C2CCC(NC(=O)C3CCOCC3)C21 (centres unmarked) [Compound 31] | 40 nM | 15 nM |
| CC(=O)NC1CCC2c3cc(C(=O)Nc4ccc(OC(F)(F)Cl)cc4)cc(-c4cc[nH]n4)c3N(CC(F)(F)F)C12 (centres unmarked) [Compound 49] | 125 nM | 72 nM |
| CC(=O)N[C@@H]1CC[C@H]2c3cc(C(=O)Nc4ccc(OC(F)(F)Cl)cc4)cc(-c4ccncn4)c3N(CC(C)(C)C)[C@@H]12 [Compound 57-A] | 316 nM | 97 nM |
| CC(=O)N[C@H]1CC[C@@H]2c3cc(C(=O)Nc4ccc(OC(F)(F)Cl)cc4)cc(-c4ccn[nH]4)c3N(C(C)C)[C@H]12 [Compound 4-B, (3S,3aS,8bR)-3-acetamido-N-(4-(chlorodifluoromethoxy)phenyl)-4-isopropyl-5-(1H-pyrazol-5-yl)-1,2,3,3a,4,8b-hexahydrocyclopenta[b]indole-7-carboxamide] | 1270 nM | 535 nM |
| CC(C)C(=O)NC1CCC2c3cc(C(=O)Nc4ccc(OC(F)(F)Cl)cc4)cc(-c4ccn[nH]4)c3N(C(C)C)C12 (centres unmarked) [Compound 7] | 142 nM | 14 nM |

Continued by falling GI50 (BaF3 (T315I mutant)), values first:

| GI50 (BaF3 (T315I mutant)) | GI50 (BaF3(WT)) | SMILES |
| --- | --- | --- |
| 768 nM | 190 nM | CC(=O)NC1CC2c3cc(C(=O)Nc4ccc(OC(F)(F)Cl)cc4)cc(-c4ccn[nH]4)c3N(C(C)C)C2C1 (centres unmarked) [Compound 43, 2-acetamido-N-(4-(chlorodifluoromethoxy)phenyl)-4-isopropyl-5-(1H-pyrazol-5-yl)-1,2,3,3a,4,8b-hexahydrocyclopenta[b]indole-7-carboxamide] |
| 440 nM | 56 nM | CC(=O)N[C@@H]1CC[C@H]2c3cc(C(=O)Nc4ccc(OC(F)(F)Cl)cc4)cc(-c4ccccn4)c3N(CC(C)(C)C)[C@@H]12 [Compound 56-A] |
| 354 nM | 15 nM | CC(C)N1c2c(-c3ccn[nH]3)cc(C(=O)Nc3ccc(OC(F)(F)Cl)cc3)cc2C2CCCC21 (centres unmarked) [Compound 2, N-(4-(chlorodifluoromethoxy)phenyl)-4-isopropyl-5-(1H-pyrazol-5-yl)-1,2,3,3a,4,8b-hexahydrocyclopenta[b]indole-7-carboxamide] |
| 245 nM | 25 nM | CC(C)N1c2c(-c3ccn[nH]3)cc(C(=O)Nc3ccc(OC(F)(F)Cl)cc3)cc2C2CCC(N3CCCS3(=O)=O)C21 (centres unmarked) [Compound 37, N-(4-(chlorodifluoromethoxy)phenyl)-3-(1,1-dioxidoisothiazolidin-2-yl)-4-isopropyl-5-(1H-pyrazol-5-yl)-1,2,3,3a,4,8b-hexahydrocyclopenta[b]indole-7-carboxamide] |
| 126 nM | 13 nM | COCCS(=O)(=O)NC1CCC2c3cc(C(=O)Nc4ccc(OC(F)(F)Cl)cc4)cc(-c4ccn[nH]4)c3N(C(C)C)C12 (centres unmarked) [Compound 18] |
| 122 nM | 36 nM | CC(=O)N(C)C1CCC2c3cc(C(=O)Nc4ccc(OC(F)(F)Cl)cc4)cc(-c4ccn[nH]4)c3N(C(C)C)C21 (centres unmarked) [Compound 44, N-(4-(chlorodifluoromethoxy)phenyl)-4-isopropyl-3-(N-methylacetamido)-5-(1H-pyrazol-5-yl)-1,2,3,3a,4,8b-hexahydrocyclopenta[b]indole-7-carboxamide] |
| 111 nM | 18 nM | CC(=O)NC1CCC2c3cc(C(=O)Nc4ccc(OC(F)(F)Cl)cc4)cc(-c4cc[nH]n4)c3N(CC3(C)CC3)C12 (centres unmarked) [Compound 45] |
| 92 nM | 13 nM | CC(=O)N[C@@H]1CC[C@H]2c3cc(C(=O)Nc4ccc(OC(F)(F)Cl)cc4)cc(-c4ccc(C)nc4)c3N(CC(C)(C)C)[C@@H]12 [Compound 60-A] |
| 84 nM | 9 nM | CC(C)N1c2c(-c3ccn[nH]3)cc(C(=O)Nc3ccc(OC(F)(F)Cl)cc3)cc2C2CCC(N3CCCCC3=O)C21 (centres unmarked) [Compound 36, N-(4-(chlorodifluoromethoxy)phenyl)-4-isopropyl-3-(2-oxopiperidin-1-yl)-5-(1H-pyrazol-5-yl)-1,2,3,3a,4,8b-hexahydrocyclopenta[b]indole-7-carboxamide] |
| 81 nM | 10 nM | CC(=O)NC1CCC2c3cc(C(=O)Nc4ccc(OC(F)(F)Cl)cc4)cc(-c4ccn[nH]4)c3N(CC(C)C)C12 (centres unmarked) [Compound 23] |
| 64 nM | 16 nM | CC(C)N1c2c(-c3ccn[nH]3)cc(C(=O)Nc3ccc(OC(F)(F)Cl)cc3)cc2C2CCC(NC(=O)c3cocn3)C21 (centres unmarked) [Compound 30] |
| 43 nM | 8 nM | CC(=O)NC1CCC2c3cc(C(=O)Nc4ccc(OC(F)(F)Cl)cc4)cc(-c4cncc(F)c4)c3N(C3CCCC3)C12 (centres unmarked) [Compound 64] |
| 41 nM | 21 nM | CC(=O)NC1CCC2c3cc(C(=O)Nc4ccc(OC(F)(F)Cl)cc4)cc(-c4ccn[nH]4)c3N(C3CC3)C12 (centres unmarked) [Compound 62] |
